Values joined by “and” are separate entries in the source; they are usually repeats but may differ in a detail not shown here. Identical values can stand only once. Inconclusive results and toxic doses are left out. No stated cut-off is given here; in the data, active means T/C of 150% or more; inactive means T/C below 125%.
Test system: L1210 leukemia ip in BDF1 mice, survival T/C
Test: NCI In Vivo Anticancer Drug Screen. Data for tumor model L1210 Leukemia (intraperitoneal) in B6D2F1 (BDF1) mice
Conditions: endpoint: mean survival time, higher = longer survival
Method in brief: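 Survival endpoint. Drug-treated group vs vehicle group, expressed as T divided by C. Tumor passaged by transplantation.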

[1] = dose: 100.0 mg/kg/injection, schedule: Q04DX003 (ip), vehicle: saline with Tween-80
[2] = dose: 200.0 mg/kg/injection, schedule: Q04DX003 (ip), vehicle: saline with Tween-80
[3] = dose: 100.0 mg/kg/injection, schedule: Q01DX009 (ip), vehicle: Klucel (hydroxypropylcellulose) (HPC)
[4] = dose: 200.0 mg/kg/injection, schedule: Q01DX009 (ip), vehicle: Klucel (hydroxypropylcellulose) (HPC)
[5] = dose: 50.0 mg/kg/injection, schedule: Q01DX009 (ip), vehicle: saline
[6] = dose: 100.0 mg/kg/injection, schedule: Q01DX009 (ip), vehicle: saline
[7] = dose: 200.0 mg/kg/injection, schedule: Q01DX009 (ip), vehicle: saline
[8] = dose: 100.0 mg/kg/injection, schedule: Q01DX001 (ip), vehicle: carboxymethylcellulose (CMC)
[9] = dose: 50.0 mg/kg/injection, schedule: Q01DX009 (ip), vehicle: saline with Tween-80
[10] = dose: 100.0 mg/kg/injection, schedule: Q01DX009 (ip), vehicle: saline with Tween-80
[11] = dose: 200.0 mg/kg/injection, schedule: Q01DX009 (ip), vehicle: saline with Tween-80
[12] = dose: 100.0 mg/kg/injection, schedule: Q04DX002 (ip), vehicle: saline with Tween-80
[13] = dose: 400.0 mg/kg/injection, schedule: Q04DX002 (ip), vehicle: saline with Tween-80
[14] = dose: 100.0 mg/kg/injection, schedule: Q04DX002 (ip), vehicle: Klucel (hydroxypropylcellulose) (HPC)
[15] = dose: 200.0 mg/kg/injection, schedule: Q04DX002 (ip), vehicle: Klucel (hydroxypropylcellulose) (HPC)
[16] = dose: 400.0 mg/kg/injection, schedule: Q04DX002 (ip), vehicle: Klucel (hydroxypropylcellulose) (HPC)

Measured: T/C

OC(CCN1CCOCC1)c1cc2ccccc2o1 (stereo not given)
inactive: dose: 75.0 mg/kg/injection, schedule: Q04DX003 (ip), vehicle: saline with Tween-80 102 % of control | dose: 150.0 mg/kg/injection, schedule: Q04DX003 (ip), vehicle: saline with Tween-80 100 % of control

CC1(C)C=Cc2ccccc21
inactive: [1] 104 % of control | [2] 96 % of control

CC(=O)OC1CCC2(C)C(=CCC3C2CCC2(C)C3CC(Br)C2C(C)=O)C1 (stereo not given)
inactive: dose: 100.0 mg/kg/injection, schedule: Q04DX003 (ip), vehicle: Klucel (hydroxypropylcellulose) (HPC) 107 % of control | dose: 200.0 mg/kg/injection, schedule: Q04DX003 (ip), vehicle: Klucel (hydroxypropylcellulose) (HPC) 88 % of control | dose: 400.0 mg/kg/injection, schedule: Q04DX003 (ip), vehicle: Klucel (hydroxypropylcellulose) (HPC) 103 % of control

CCn1c(C)nc2cc(S(=O)(=O)C(F)(F)C(F)Cl)ccc21 (stereo not given)
inactive: dose: 100.0 mg/kg/injection, schedule: Q01DX001 (ip), vehicle: Klucel (hydroxypropylcellulose) (HPC) 100 % of control | [3] 94 % of control | dose: 200.0 mg/kg/injection, schedule: Q01DX001 (ip), vehicle: Klucel (hydroxypropylcellulose) (HPC) 97 % of control | [4] 101 % of control | dose: 400.0 mg/kg/injection, schedule: Q01DX001 (ip), vehicle: Klucel (hydroxypropylcellulose) (HPC) 97 % of control | dose: 400.0 mg/kg/injection, schedule: Q01DX009 (ip), vehicle: Klucel (hydroxypropylcellulose) (HPC) 106 % of control

Cn1c(N)c(C(C[N+](=O)[O-])c2ccccc2)c(=O)n(C)c1=O (stereo not given)
inactive: dose: 50.0 mg/kg/injection, schedule: Q01DX009 (ip), vehicle: Klucel (hydroxypropylcellulose) (HPC) 95 % of control | [3] 92 % of control | [4] 98 % of control

CC12C(=O)OC3CCC1CC32 (stereo not given)
inactive: dose: 75.0 mg/kg/injection, schedule: Q04DX003 (ip), vehicle: saline 97 % of control | dose: 150.0 mg/kg/injection, schedule: Q04DX003 (ip), vehicle: saline 94 % of control | dose: 300.0 mg/kg/injection, schedule: Q04DX003 (ip), vehicle: saline 94 % of control

C=C(C(=O)O)C(=O)O
inactive: [5] 102 % of control | [6] 116 % of control | [1] 97 % of control | [7] 100 % of control | [2] 106 % of control

CCCCCCCCCCCCCCCC(=O)NCC[N+](CC)(CC)Cc1ccc(C[N+](CC)(CC)CCNC(=O)CCCCCCCCCCCCCCC)cc1
inactive: dose: 75.0 mg/kg/injection, schedule: Q01DX001 (ip), vehicle: saline 98 % of control

Nc1ncnc(N)c1NC(=O)c1ccc(OCCCOc2ccccc2)c(Cl)c1
inactive: [8] 96 % of control | dose: 200.0 mg/kg/injection, schedule: Q01DX001 (ip), vehicle: carboxymethylcellulose (CMC) 101 % of control | dose: 400.0 mg/kg/injection, schedule: Q01DX001 (ip), vehicle: carboxymethylcellulose (CMC) 96 % of control

CC(C)OC(=S)SSc1nc2ccccc2s1
inactive: [9] 103 % of control | [10] 92 % of control | [1] 90 % of control | [11] 96 % of control | [2] 96 % of control

CN(C)Cc1cc(C(C)(C)C)c(O)c(C(C)(C)C)c1
inactive: dose: 25.0 mg/kg/injection, schedule: Q01DX009 (ip), vehicle: saline with Tween-80 112 % of control | [9] 98 % of control | [10] 94 % of control | [1] 95 % of control

CCC(N)(CC)C(=O)O
inactive: [5] 102 % of control | [6] 98 % of control | [7] 95 % of control

CC(C)CCCC(C)C1CCC2C3CC=C4CC(=O)CCC4(C)C3CCC12C (stereo not given)
inactive: [12] 98 % of control | [13] 88 % of control

CC(=O)OC(OC(C)=O)c1ccccc1
inactive: [14] 106 % of control | [15] 110 % of control | [16] 103 % of control

C=C(C)/C=C(\C)CC(=C)C
inactive: dose: 100.0 mg/kg/injection, schedule: Q04DX003 (ip), vehicle: saline 97 % of control | dose: 200.0 mg/kg/injection, schedule: Q04DX003 (ip), vehicle: saline 105 % of control | dose: 400.0 mg/kg/injection, schedule: Q04DX003 (ip), vehicle: saline 96 % of control

Cc1ccc(C(CC(=O)NN)NN)c(O)c1 (stereo not given)
inactive: [9] 104 % of control | [10] 101 % of control | [11] 108 % of control

OCC1SCCS1
inactive: [12] 101 % of control | dose: 200.0 mg/kg/injection, schedule: Q04DX002 (ip), vehicle: saline with Tween-80 97 % of control | [13] 90 % of control

CC(C)n1cnc2c(=S)nc[nH]c21
active: dose: 58.0 mg/kg/injection, schedule: Q01DX Z (oral), vehicle: carboxymethylcellulose (CMC) 152 % of control
inactive: dose: 3.12 mg/kg/injection, schedule: Q01DX Z (ip), vehicle: carboxymethylcellulose (CMC) 106 % of control | dose: 7.25 mg/kg/injection, schedule: Q01DX Z (ip), vehicle: carboxymethylcellulose (CMC) 103 % of control | dose: 7.25 mg/kg/injection, schedule: Q01DX Z (oral), vehicle: carboxymethylcellulose (CMC) 110 % of control | dose: 14.5 mg/kg/injection, schedule: Q01DX Z (ip), vehicle: carboxymethylcellulose (CMC) 110 % of control | dose: 14.5 mg/kg/injection, schedule: Q01DX Z (oral), vehicle: carboxymethylcellulose (CMC) 118 % of control | dose: 29.0 mg/kg/injection, schedule: Q01DX Z (ip), vehicle: carboxymethylcellulose (CMC) 116 % of control | dose: 210.0 mg/kg/injection, schedule: Q01DX Z (ip), vehicle: carboxymethylcellulose (CMC) 90 % of control

CCCCCCCCCNC(=O)Nc1cccc(Cl)c1C
inactive: [10] 86 % of control | [1] 90 % of control | [11] 87 % of control | [2] 90 % of control | dose: 400.0 mg/kg/injection, schedule: Q04DX003 (ip), vehicle: saline with Tween-80 90 % of control

O=C(CC(=O)c1ccccc1)c1ccccc1.O=C(CC(=O)c1ccccc1)c1ccccc1.O=C(CC(=O)c1ccccc1)c1ccccc1.[Cr]
inactive: [14] 93 % of control | [15] 101 % of control | [16] 104 % of control

CCOC(=O)c1ccc2c(ccc3ccccc32)n1
inactive: dose: 25.0 mg/kg/injection, schedule: Q01DX001 (ip), vehicle: carboxymethylcellulose (CMC) 97 % of control | dose: 25.0 mg/kg/injection, schedule: Q01DX009 (ip), vehicle: carboxymethylcellulose (CMC) 98 % of control and 102 % of control | dose: 25.0 mg/kg/injection, schedule: Q04DX002 (ip), vehicle: carboxymethylcellulose (CMC) 93 % of control and 104 % of control | dose: 25.0 mg/kg/injection, schedule: Q04DX003 (ip), vehicle: carboxymethylcellulose (CMC) 108 % of control | dose: 50.0 mg/kg/injection, schedule: Q01DX001 (ip), vehicle: carboxymethylcellulose (CMC) 102 % of control | dose: 50.0 mg/kg/injection, schedule: Q01DX009 (ip), vehicle: carboxymethylcellulose (CMC) 94 % of control and 98 % of control | dose: 50.0 mg/kg/injection, schedule: Q04DX002 (ip), vehicle: carboxymethylcellulose (CMC) 97 % of control | dose: 50.0 mg/kg/injection, schedule: Q04DX003 (ip), vehicle: carboxymethylcellulose (CMC) 102 % of control | [8] 94 % of control | dose: 100.0 mg/kg/injection, schedule: Q01DX009 (ip), vehicle: carboxymethylcellulose (CMC) 100 % of control | dose: 100.0 mg/kg/injection, schedule: Q04DX002 (ip), vehicle: carboxymethylcellulose (CMC) 93 % of control and 101 % of control | dose: 100.0 mg/kg/injection, schedule: Q04DX003 (ip), vehicle: carboxymethylcellulose (CMC) 105 % of control

FC(F)(F)c1nc2cccc3c2n1CCC3
inactive: [9] 93 % of control | [10] 87 % of control | [1] 97 % of control | [11] 101 % of control | [2] 96 % of control

Nc1nc([Se])c2ncn(C3OC(CO)C(O)C3O)c2n1 (stereo not given)
inactive: [5] 91 % of control
active: dose: 10.0 mg/kg/injection, schedule: Q01DX009 (ip), vehicle: saline 179 % of control | dose: 12.5 mg/kg/injection, schedule: Q01DX009 (ip), vehicle: saline 208 % of control and 213 % of control | dose: 20.0 mg/kg/injection, schedule: Q01DX009 (ip), vehicle: saline 182 % of control | dose: 25.0 mg/kg/injection, schedule: Q01DX009 (ip), vehicle: saline 201 % of control and 229 % of control

CCN(CC)CCCC(C)Nc1ccnc(C)c1 (stereo not given)
inactive: dose: 10.0 mg/kg/injection, schedule: Q04DX003 (ip), vehicle: other 100 % of control | dose: 20.0 mg/kg/injection, schedule: Q04DX003 (ip), vehicle: other 95 % of control | dose: 40.0 mg/kg/injection, schedule: Q04DX003 (ip), vehicle: other 94 % of control

Reference: PubChem BioAssay AID248 (DTP/NCI, 2004)
